Measurements taken from patent US4151361A, “Prostaglandin derivatives” (American Home Products Corporation, priority 1978, dated 1979).

System: bronchoconstricting effects of a standard dose of acetylcholine
Experiment: bronchodilation upon aerosol inhalation (inhibition of acetylcholine bronchoconstriction), method of Rosenthale et al.
Type: in vivo
Conditions: guinea pig, i.v. acetylcholine dose producing ca. 30% bronchoconstriction
From the text: In using the compounds of the invention to produce bronchodilating effects in warm-blooded animals, they may be administered in a variety of dosage forms: oral, injectable, and aerosol inhalation. Aerosol inhalation is a preferred method because of its rapid onset of action, great potency, and specificity of action. The particular dosage to obtain the bronchodilating effect will vary with the particular compound employed, the particular animal involved, and the degree of bronchodilation desired. In the guinea pig, by aerosol inhalation, the dose to produce bronchodilation is from about 0.15 micrograms to about 25 micrograms, and preferably from about 0.15 to about 15 micrograms. The bronchodilation produced upon aerosol inhalation can be observed by the method of Rosenthale et al., J. Pharmacol. Exp. Ther., 178, 541 (1971). Using this procedure the following results were obtained:
*The dose (i.v.) of acetylcholine which produces a ca. 30%

Structure (SMILES)	Percent Inhibition of the Bronchoconstricting effects of a standard dose of acetylcholine (dose 1.5 μg) [%]	Percent Inhibition of the Bronchoconstricting effects of a standard dose of acetylcholine (dose .0015 μg) [%]	Percent Inhibition of the Bronchoconstricting effects of a standard dose of acetylcholine (dose .015 μg) [%]	Percent Inhibition of the Bronchoconstricting effects of a standard dose of acetylcholine (dose .15 μg) [%]	Percent Inhibition of the Bronchoconstricting effects of a standard dose of acetylcholine (dose 15 μg) [%]
C#CC(O)(CCCCC)CC[C@H]1[C@H](O)CC(=O)[C@@H]1CCCCCCC(=O)O (stereo partly shown) [tetrahydro-15-ethynyl-PGE2, 15-Ethynyl-Tetrahydro-PGE2]	100	51	86	99	
C#CC(O)(CCCCC)CC[C@@H]1[C@@H](C/C=C\CCCC(=O)O)[C@H](O)C[C@H]1O (stereo partly drawn) [13,14-dihydro-15-ethynyl-PGF2β, 13,14-Dihydro-15-Ethynyl PGF2β]	44				63
C#CC(O)(CCCCC)CC[C@H]1[C@H](O)CC(=O)[C@@H]1C/C=C\CCCC(=O)O (stereo partly shown) [13,14-dihydro-15-ethynyl-PGE2, 13,14-Dihydro-15-Ethynyl-PGE2]	100		94	96	91
C#C[C@](O)(CCCCC)CC[C@H]1[C@H](O)CC(=O)[C@@H]1CCCCCCC(=O)O [tetrahydro-15β-ethynyl-PGE2, 15β-ethynyl-tetrahydro-PGE2]		58	95	98	
